Measurements: paper PMC10017709, “Structural basis of selective cannabinoid CB2 receptor activation” (Nature Communications, 2023)
Values joined by “and” are separate entries in the source; they are usually repeats but may differ in a detail not shown here. Equal entries are not always repeated.

Experiments:
CB1R-H270^ECL2L = CB1R-H270^ECL2L (Homo sapiens, UniProt P21554, H270L); assay: [3H]CP55,940 displacement assay, CB1R H270L mutant; format: binding
CB1R D266ECL2E = target: T1, CB1R D266ECL2E (Homo sapiens, UniProt P21554, D266E); assay: [35S]GTPγS assay, CB1R D266E mutant; format: biochemical; conditions: CB1R D266E; 10 µM agonist
T1 construct: The WT CB1R and CB2R genes were subcloned into vector pcDNA3.1; HA signal peptide (N); expressed in transfected cells; host or cells: HEK293T (transient, membrane homogenates)

CB2R-H95^2.65A = CB2R-H95^2.65A (Homo sapiens, UniProt P34972, H95A); assay: [35S]GTPγS assay, CB2R H95A mutant; format: biochemical
CB2R-L185^ECL2H = CB2R-L185^ECL2H (Homo sapiens, UniProt P34972, L185H); assay: [35S]GTPγS assay, CB2R L185H mutant; format: biochemical; conditions: L185H mutant; at 10 µM compared to WT; read-out: Emax (%)
CB2R-Quadruple^TM1,7 = CB2R-Quadruple^TM1,7 (Homo sapiens, UniProt P34972, C40S/K279T/K33Q/V36I); assay: [35S]GTPγS assay, CB2R quadruple mutant; format: biochemical; conditions: for [35S]GTPγS binding: QuadrupleTM1,7, individual replicates
Experimental: In short, transient HEK293T membrane homogenates (10 µg/well) were diluted in assay buffer (50 mM Tris-HCl (pH 7.4), 5 mM MgCl2, 150 mM NaCl, 1 mM EDTA, 0.05% BSA (w/v) and 1 mM DTT, freshly prepared every day) and were pretreated with 10 µg saponin and 1 µM GDP. For endocannabinoid samples, the membranes were additionally pretreated for 30 min with 50 µM PMSF before agonist addition. […] Basal receptor activity was determined in the presence of vehicle only (0.2% DMSO/acetonitrile). […] Filtration was performed, and filter-bound radioactivity was determined as described under [^3H]RO6957022 Competition Association Assays except for using ice-cold 50 mM Tris-HCl (pH 7.4), 5 mM MgCl2 buffer.

CB2R-E181^ECL2D = CB2R-E181^ECL2D (Homo sapiens, UniProt P34972, E181D); assay: [35S]GTPγS assay, CB2R E181D mutant; format: biochemical; conditions: E181D mutant; at 10 µM compared to WT; read-out: Emax (%)
hCB2R = target: T2, hCB2R (Homo sapiens, UniProt P34972); assay: [3H]RO6957022 competition association assay; format: binding; conditions: individual replicates
T2 construct: host or cells: CHO-K1 (CHOK1_hCB2bgal, PathHunter), membranes

CB1R I267ECL2L = CB1R I267ECL2L (Homo sapiens, UniProt P21554, I267L); assay: [3H]CP55,940 displacement assay, CB1R I267L mutant; format: binding
CB2R WT = CB2R WT (Homo sapiens, UniProt P34972); assay: [3H]CP55,940 displacement assay, CB2R WT; format: binding; conditions: CB2R - WT, individual replicates
Chain of CB2R WT (P34972 whole entry): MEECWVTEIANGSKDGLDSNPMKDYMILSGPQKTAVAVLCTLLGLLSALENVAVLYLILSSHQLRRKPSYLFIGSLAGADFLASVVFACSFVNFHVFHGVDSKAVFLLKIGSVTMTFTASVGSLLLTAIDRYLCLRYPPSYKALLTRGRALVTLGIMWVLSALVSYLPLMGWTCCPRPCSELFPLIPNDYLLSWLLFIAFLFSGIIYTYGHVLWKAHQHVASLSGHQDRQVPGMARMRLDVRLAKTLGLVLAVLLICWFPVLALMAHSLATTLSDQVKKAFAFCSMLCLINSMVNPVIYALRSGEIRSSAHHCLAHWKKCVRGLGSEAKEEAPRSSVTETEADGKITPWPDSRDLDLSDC

Chain of CB1R-H270^ECL2L (P21554 whole entry H270L): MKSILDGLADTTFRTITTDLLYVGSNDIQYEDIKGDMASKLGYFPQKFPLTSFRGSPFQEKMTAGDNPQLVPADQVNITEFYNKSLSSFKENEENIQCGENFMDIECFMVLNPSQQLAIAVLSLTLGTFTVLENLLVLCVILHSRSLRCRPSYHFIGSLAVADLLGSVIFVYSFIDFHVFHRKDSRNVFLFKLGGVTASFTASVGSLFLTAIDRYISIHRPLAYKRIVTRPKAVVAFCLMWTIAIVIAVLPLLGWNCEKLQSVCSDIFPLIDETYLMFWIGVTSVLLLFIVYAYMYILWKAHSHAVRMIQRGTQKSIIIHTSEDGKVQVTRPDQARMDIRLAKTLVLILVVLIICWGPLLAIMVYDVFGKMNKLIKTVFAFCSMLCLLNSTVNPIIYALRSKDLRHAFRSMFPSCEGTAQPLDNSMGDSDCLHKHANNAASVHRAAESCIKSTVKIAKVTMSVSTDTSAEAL
Chain of CB1R I267ECL2L (P21554 whole entry I267L): as the sequence (P21554 whole entry H270L) above, with I267L, L270H counted along it
Chain of CB2R-Quadruple^TM1,7 (P34972 whole entry K33Q/V36I/C40S/K279T): as the sequence (P34972 whole entry) above, with K33Q, V36I, C40S, K279T counted along it
T2 sequence (P34972 whole entry): as the sequence (P34972 whole entry) above
Chain of CB2R-H95^2.65A (P34972 whole entry H95A): as the sequence (P34972 whole entry) above, with H95A counted along it
Chain of CB2R-E181^ECL2D (P34972 whole entry E181D): as the sequence (P34972 whole entry) above, with E181D counted along it
T1 sequence (P21554 whole entry D266E): as the sequence (P21554 whole entry H270L) above, with D266E, L270H counted along it
Chain of CB2R-L185^ECL2H (P34972 whole entry L185H): as the sequence (P34972 whole entry) above, with L185H counted along it

CC(C)(C)[C@@H](CO)NC(=O)c1nn(-c2c[n+]([O-])ccn2)c2c1C[C@@H]1C[C@H]21 [APD371]
percentage specific [3H]CP55,940 binding (CB1R-H270^ECL2L; CB1R H270ECL2L, 10 µM ligand, replicates 1-3): 89.52 percentage and 87.15 percentage and 98.55 percentage | Displacement (%) of [3H]CP55,940 (CB1R-H270^ECL2L; CB1R H270L, 10 µM compound): 8 ± 3% | Agonist-mediated activation (CB1R D266ECL2E): 0.9 ± 0.1 fold over its basal | drop in potency compared to WT (CB2R-H95^2.65A; H95A mutant vs WT, [35S]GTPγS): 158 fold | Emax (CB2R-H95^2.65A; H95A mutant, at 10 µM compared to WT, read-out: Emax (%)): 50 ± 1% | Emax (CB2R-L185^ECL2H): 183 ± 16% | Emax (CB2R-Quadruple^TM1,7; Quadruple TM1,7 mutant, at 10 µM compared to WT, read-out: Emax (%)): 35 ± 7% | [35S]GTPγS binding (CB2R-Quadruple^TM1,7; log [ligand] (M) -5): 35.07 percentage of WT and 47.26 percentage of WT and 22.67 percentage of WT | [35S]GTPγS binding (CB2R-Quadruple^TM1,7; log [ligand] (M) -6): 15.07 percentage of WT and 38.79 percentage of WT and 23.35 percentage of WT | [35S]GTPγS binding (CB2R-Quadruple^TM1,7; log [ligand] (M) -7): -3.98 percentage of WT and 20.94 percentage of WT and 22.86 percentage of WT | [35S]GTPγS binding (CB2R-Quadruple^TM1,7; log [ligand] (M) -8): 22.19 percentage of WT and 25.68 percentage of WT and 22.32 percentage of WT | [35S]GTPγS binding (CB2R-Quadruple^TM1,7; log [ligand] (M) -9): -7.96 percentage of WT and -0.64 percentage of WT and 0.99 percentage of WT | [35S]GTPγS binding (CB2R-Quadruple^TM1,7; log [ligand] (M) -10): -4.29 percentage of WT and 0.80 percentage of WT and 9.16 percentage of WT | Emax (CB2R-E181^ECL2D): 39 ± 6% | percentage specific [3H]RO6957022 binding (competition association) (hCB2R; Time 1 min): -7.10% and 4.75% and 12.65% | percentage specific [3H]RO6957022 binding (competition association) (hCB2R; Time 3 min): 13.92% and 19.07% and 26.36% | percentage specific [3H]RO6957022 binding (competition association) (hCB2R; Time 5 min): 13.96% and 13.94% and 24.44% | percentage specific [3H]RO6957022 binding (competition association) (hCB2R; Time 7 min): 24.14% and 47.87% and 28.29% | percentage specific [3H]RO6957022 binding (competition association) (hCB2R; Time 10 min): 24.18% and 36.84% and 30.72% | percentage specific [3H]RO6957022 binding (competition association) (hCB2R; Time 20 min): 40.15% and 32.14% and 34.58% | percentage specific [3H]RO6957022 binding (competition association) (hCB2R; Time 30 min): 39.61% and 32.25% and 36.63% | percentage specific [3H]RO6957022 binding (competition association) (hCB2R; Time 45 min): 20.89% and 29.77% and 37.77% | percentage specific [3H]RO6957022 binding (competition association) (hCB2R; Time 60 min): 31.24% and 38.79% and 36.98% | percentage specific [3H]RO6957022 binding (competition association) (hCB2R; Time 90 min): 31.73% and 32.90% and 39.73% | percentage specific [3H]RO6957022 binding (competition association) (hCB2R; Time 120 min): 27.67% and 36.63% and 31.55% | percentage specific [3H]CP55,940 binding (CB1R I267ECL2L; CB1R I267ECL2L, 10 µM ligand, replicates 1-3): 153.09 percentage and 95.47 percentage and 123.57 percentage | Displacement (%) of [3H]CP55,940 (CB1R I267ECL2L; CB1R I267L, 10 µM compound): -24 ± 17% | percentage specific [3H]CP55,940 binding (CB2R WT; log [ligand] (M) -5): 6.97% and 9.11% and 6.37% | percentage specific [3H]CP55,940 binding (CB2R WT; log [ligand] (M) -6): 8.91% and 9.80% and 15.97% | percentage specific [3H]CP55,940 binding (CB2R WT; log [ligand] (M) -7): 35.26% and 29.34% and 24.47% | percentage specific [3H]CP55,940 binding (CB2R WT; log [ligand] (M) -8): 67.55% and 60.65% and 76.97% | percentage specific [3H]CP55,940 binding (CB2R WT; log [ligand] (M) -9): 110.80% and 85.34% and 106.79%
